Test results from patent publication US20130072430A1, “METHODS FOR TREATMENT OR PROPHYLAXIS OF KIDNEY OR LIVER DYSFUNCTION” (NPS PHARMACEUTICALS, INC., priority 2010, published 2013).

Test system: Human patients with short bowel syndrome
Assay: Example 1: liver diagnostic biomarkers (total bilirubin, ALT, AST, ALP) in short bowel syndrome patients, every four weeks for 24 weeks
Assay type: in vivo
Procedure: Human patients with short bowel syndrome were divided into three groups: a control group (16 total individuals) to receive placebo, an experimental group (35 total individuals) to receive teduglutide at 0.05 mg/kg/day throughout the study, and an experimental group (32 total individuals) to receive teduglutide at 0.1 mg/kg/day throughout the study. Patients were treated by subcutaneous injection of placebo or the appropriate dose of teduglutide. As individuals with short bowel syndrome are likely to experience associated liver and kidney disease, known biomarkers of liver and kidney function were monitored every four weeks, for 24 weeks. The liver biomarkers tested included total bilirubin, ALT and AST and ALP. The kidney biomarkers tested included urea nitrogen, creatinine and GFR. Before administration of placebo or teduglutide, diagnostic biomarker levels were tested to establish a baseline for each individual.
To visualize the effect of GLP-2 on the levels of the diagnostic biomarkers, the average change from baseline was calculated for the placebo and teduglutide treated groups for each visit after a baseline was established. The average change from baseline of each group is depicted in FIGS. […]. The numerical figures for each diaanostic biomarker at each time point are depicted in Table 1.
The efficacy of teduglutide in treating liver dysfunction was further tested by sorting the data into two groups: individuals with abnormal baseline values of liver diagnostic biomarkers; and individuals with normal baseline values of liver diagnostic biomarkers. The mean diagnostic biomarker change from baseline for these two groups is shown for ALT (FIGS. 5 and 6) and AST (FIGS. 7 and 8). […] These changes were significant when compared to baseline levels for the group, and when compared to placebo (see FIGS. 5 and 7).
The raw data for this sorting is reproduced in Table 2 below.

[1] = Week 12, range −5%<= and <=5%, teduglutide 0.05 mg/kg/day
[2] = Week 12, range −5%<= and <=5%, teduglutide 0.1 mg/kg/day
[3] = Week 16, range <−5%, teduglutide 0.05 mg/kg/day
[4] = Week 16, range <−5%, teduglutide 0.1 mg/kg/day
[5] = Week 16, range >5%, teduglutide 0.05 mg/kg/day
[6] = Week 16, range >5%, teduglutide 0.1 mg/kg/day
[7] = Week 16, range −5%<= and <=5%, teduglutide 0.05 mg/kg/day
[8] = Week 16, range −5%<= and <=5%, teduglutide 0.1 mg/kg/day
[9] = Week 20, range <−5%, teduglutide 0.05 mg/kg/day
[10] = Week 20, range <−5%, teduglutide 0.1 mg/kg/day
[11] = Week 20, range >5%, teduglutide 0.05 mg/kg/day
[12] = Week 20, range >5%, teduglutide 0.1 mg/kg/day
[13] = Week 20, range −5%<= and <=5%, teduglutide 0.05 mg/kg/day
[14] = Week 20, range −5%<= and <=5%, teduglutide 0.1 mg/kg/day
[15] = Week 24, range <−5%, teduglutide 0.05 mg/kg/day
[16] = Week 24, range <−5%, teduglutide 0.1 mg/kg/day
[17] = Week 24, range >5%, teduglutide 0.05 mg/kg/day
[18] = Week 24, range >5%, teduglutide 0.1 mg/kg/day
[19] = Week 24, range −5%<= and <=5%, teduglutide 0.05 mg/kg/day
[20] = Week 24, range −5%<= and <=5%, teduglutide 0.1 mg/kg/day
[21] = compared to baseline and to placebo

CC[C@H](C)[C@H](NC(=O)[C@H](Cc1ccccc1)NC(=O)[C@H](CC(=O)O)NC(=O)[C@H](CCCNC(=N)N)NC(=O)[C@H](C)NC(=O)[C@H](C)NC(=O)[C@H](CC(C)C)NC(=O)[C@H](CC(N)=O)NC(=O)[C@H](CC(=O)O)NC(=O)[C@H](CC(C)C)NC(=O)[C@@H](NC(=O)[C@@H](NC(=O)[C@H](CC(N)=O)NC(=O)[C@H](CCSC)NC(=O)[C@H](CCC(=O)O)NC(=O)[C@H](CC(=O)O)NC(=O)[C@H](CO)NC(=O)[C@H](Cc1ccccc1)NC(=O)[C@H](CO)NC(=O)CNC(=O)[C@H](CC(=O)O)NC(=O)CNC(=O)[C@@H](N)Cc1c[nH]cn1)[C@@H](C)O)[C@@H](C)CC)C(=O)N[C@@H](CC(N)=O)C(=O)N[C@@H](Cc1c[nH]c2ccccc12)C(=O)N[C@@H](CC(C)C)C(=O)N[C@H](C(=O)N[C@@H](CCC(N)=O)C(=O)N[C@H](C(=O)N[C@@H](CCCCN)C(=O)N[C@H](C(=O)N[C@H](C(=O)N[C@@H](CC(=O)O)C(=O)O)[C@@H](C)O)[C@@H](C)CC)[C@@H](C)O)[C@@H](C)CC [teduglutide]
ALT (SGPT) change from baseline: patients in range, n(%) [1]: 4(11.4%) | AST (SGOT) change from baseline: patients in range, n(%) [1]: 3(8.6%) | TOTAL BILIRUBIN change from baseline: patients in range, n(%) [1]: 4(11.4%) | ALKALINE PHOSPHATASE change from baseline: patients in range, n(%) [2]: 1(3.1%) | ALT (SGPT) change from baseline: patients in range, n(%) [2]: 2(6.3%) | AST (SGOT) change from baseline: patients in range, n(%) [2]: 3(9.4%) | TOTAL BILIRUBIN change from baseline: patients in range, n(%) [2]: 6(18.8%) | ALKALINE PHOSPHATASE change from baseline: patients in range, n(%) [3]: 20(57.1%) | AST (SGOT) change from baseline: patients in range, n(%) [3]: 14(40.0%) | TOTAL BILIRUBIN change from baseline: patients in range, n(%) [3]: 14(40.0%) | ALKALINE PHOSPHATASE change from baseline: patients in range, n(%) [4]: 21(65.6%) | AST (SGOT) change from baseline: patients in range, n(%) [4]: 18(56.3%) | TOTAL BILIRUBIN change from baseline: patients in range, n(%) [4]: 14(43.8%) | ALKALINE PHOSPHATASE change from baseline: patients in range, n(%) [5]: 6(17.1%) | ALT (SGPT) change from baseline: patients in range, n(%) [5]: 12(34.3%) | AST (SGOT) change from baseline: patients in range, n(%) [5]: 8(22.9%) | TOTAL BILIRUBIN change from baseline: patients in range, n(%) [5]: 9(25.7%) | ALKALINE PHOSPHATASE change from baseline: patients in range, n(%) [6]: 7(21.9%) | ALT (SGPT) change from baseline: patients in range, n(%) [6]: 9(28.1%) | AST (SGOT) change from baseline: patients in range, n(%) [6]: 8(25.0%) | TOTAL BILIRUBIN change from baseline: patients in range, n(%) [6]: 6(18.8%) | ALT (SGPT) change from baseline: patients in range, n(%) (Week 16, range >−5%, teduglutide 0.05 mg/kg/day): 16(45.7%) | ALT (SGPT) change from baseline: patients in range, n(%) (Week 16, range >−5%, teduglutide 0.1 mg/kg/day): 19(59.4%) | ALKALINE PHOSPHATASE change from baseline: patients in range, n(%) [7]: 2(5.7%) | ALT (SGPT) change from baseline: patients in range, n(%) [7]: 0(0.0%) | AST (SGOT) change from baseline: patients in range, n(%) [7]: 6(17.1%) | TOTAL BILIRUBIN change from baseline: patients in range, n(%) [7]: 3(8.6%) | ALKALINE PHOSPHATASE change from baseline: patients in range, n(%) [8]: 2(6.3%) | ALT (SGPT) change from baseline: patients in range, n(%) [8]: 2(6.3%) | AST (SGOT) change from baseline: patients in range, n(%) [8]: 3(9.4%) | TOTAL BILIRUBIN change from baseline: patients in range, n(%) [8]: 8(25.0%) | ALKALINE PHOSPHATASE change from baseline: patients in range, n(%) [9]: 22(62.9%) | ALT (SGPT) change from baseline: patients in range, n(%) [9]: 17(48.6%) | AST (SGOT) change from baseline: patients in range, n(%) [9]: 17(48.6%) | TOTAL BILIRUBIN change from baseline: patients in range, n(%) [9]: 12(34.3%) | ALKALINE PHOSPHATASE change from baseline: patients in range, n(%) [10]: 19(59.4%) | ALT (SGPT) change from baseline: patients in range, n(%) [10]: 19(59.4%) | AST (SGOT) change from baseline: patients in range, n(%) [10]: 16(50.0%) | TOTAL BILIRUBIN change from baseline: patients in range, n(%) [10]: 14(43.8%) | ALKALINE PHOSPHATASE change from baseline: patients in range, n(%) [11]: 4(11.4%) | ALT (SGPT) change from baseline: patients in range, n(%) [11]: 9(25.7%) | AST (SGOT) change from baseline: patients in range, n(%) [11]: 6(17.1%) | TOTAL BILIRUBIN change from baseline: patients in range, n(%) [11]: 7(20.0%) | ALKALINE PHOSPHATASE change from baseline: patients in range, n(%) [12]: 9(28.1%) | ALT (SGPT) change from baseline: patients in range, n(%) [12]: 8(25.0%) | AST (SGOT) change from baseline: patients in range, n(%) [12]: 9(28.1%) | TOTAL BILIRUBIN change from baseline: patients in range, n(%) [12]: 9(28.1%) | ALKALINE PHOSPHATASE change from baseline: patients in range, n(%) [13]: 1(2.9%) | ALT (SGPT) change from baseline: patients in range, n(%) [13]: 1(2.9%) | AST (SGOT) change from baseline: patients in range, n(%) [13]: 4(11.4%) | TOTAL BILIRUBIN change from baseline: patients in range, n(%) [13]: 6(17.1%) | ALKALINE PHOSPHATASE change from baseline: patients in range, n(%) [14]: 1(3.1%) | ALT (SGPT) change from baseline: patients in range, n(%) [14]: 2(6.3%) | AST (SGOT) change from baseline: patients in range, n(%) [14]: 3(9.4%) | TOTAL BILIRUBIN change from baseline: patients in range, n(%) [14]: 6(18.8%) | ALKALINE PHOSPHATASE change from baseline: patients in range, n(%) [15]: 21(60.0%) | ALT (SGPT) change from baseline: patients in range, n(%) [15]: 18(51.4%) | AST (SGOT) change from baseline: patients in range, n(%) [15]: 17(48.6%) | TOTAL BILIRUBIN change from baseline: patients in range, n(%) [15]: 8(22.9%) | ALKALINE PHOSPHATASE change from baseline: patients in range, n(%) [16]: 20(62.5%) | ALT (SGPT) change from baseline: patients in range, n(%) [16]: 18(56.3%) | AST (SGOT) change from baseline: patients in range, n(%) [16]: 15(46.9%) | TOTAL BILIRUBIN change from baseline: patients in range, n(%) [16]: 11(34.4%) | ALKALINE PHOSPHATASE change from baseline: patients in range, n(%) [17]: 4(11.4%) | ALT (SGPT) change from baseline: patients in range, n(%) [17]: 4(11.4%) | AST (SGOT) change from baseline: patients in range, n(%) [17]: 6(17.1%) | TOTAL BILIRUBIN change from baseline: patients in range, n(%) [17]: 10(28.6%) | ALKALINE PHOSPHATASE change from baseline: patients in range, n(%) [18]: 5(15.6%) | ALT (SGPT) change from baseline: patients in range, n(%) [18]: 11(34.4%) | AST (SGOT) change from baseline: patients in range, n(%) [18]: 11(34.4%) | TOTAL BILIRUBIN change from baseline: patients in range, n(%) [18]: 10(31.3%) | ALKALINE PHOSPHATASE change from baseline: patients in range, n(%) [19]: 0(0.0%) | ALT (SGPT) change from baseline: patients in range, n(%) [19]: 4(11.4%) | AST (SGOT) change from baseline: patients in range, n(%) [19]: 3(8.6%) | TOTAL BILIRUBIN change from baseline: patients in range, n(%) [19]: 4(11.4%) | ALKALINE PHOSPHATASE change from baseline: patients in range, n(%) [20]: 4(12.5%) | ALT (SGPT) change from baseline: patients in range, n(%) [20]: 0(0.0%) | AST (SGOT) change from baseline: patients in range, n(%) [20]: 3(9.4%) | TOTAL BILIRUBIN change from baseline: patients in range, n(%) [20]: 6(18.8%) | fraction of individuals experiencing a decrease of more than 5% in ALT versus placebo (beginning at 4 weeks after commencement of treatment): greater fraction of individuals experiencing a decrease of more than 5% | ALT change from baseline in patients with abnormal baseline values (FIG. 5) [21]: statistically significant improvements | AST change from baseline in patients with abnormal baseline values (FIG. 7) [21]: statistically significant improvements | average level of ALP relative to baseline (FIG. 4) (groups receiving teduglutide): decreased relative to baseline for the entire period of the study | percent of individuals experiencing an increase of greater than 5% in ALP or ALT versus placebo (groups receiving teduglutide): effective prophylactic against increases in biomarkers associated with liver dysfunction | average decrease of the level of ALT from baseline (FIG. 1) (groups receiving teduglutide, maintained for the entire duration of the study): about 10 U/L | individuals experiencing a decrease in ALP greater than 5% from baseline (within 4 weeks of the beginning of treatment, groups receiving teduglutide): roughly 60%
